From patent US6156724A, “Uses of didemnins as immunomodulating agents” (priority 1998, dated 2000)
Numbered stars: 1 amine (or outer) side, 2 acyl side, 3 side chain; on linkers, the order of the positions; unused ones are H or OH. Bridge positions count the residues as written; N and C are the ends. Square brackets hold non-standard residues; d marks the D form. Peptide text beside a SMILES is read from it. * marks the point of attachment. X4 = CC[C@H](C)[C@@H](N[*:1])[C@@H](O)CC(=O)O[C@@H](C(C)C)[C@H](O)[C@H](C)C(=O)[*:2]; X2 = CC[C@H](C)[C@@H](N[*:1])[C@@H](O)CC(=O)O[C@@H](C(=O)[C@H](C)C(=O)[*:2])C(C)C; X5 = CC[C@@H](C)[C@@H](N[*:1])[C@@H](O)CC(=O)O[C@H](C(=O)[C@H](C)C(=O)[*:2])C(C)C; X1 = CC[C@H](C)[C@@H](N[*:1])[C@@H](O)CC(=O)O[C@H](C(=O)[C@H](C)C(=O)[*:2])C(C)C; X3 = CC[C@H](C)[C@H](N[*:1])[C@@H](O)CC(=O)O[C@H](C(=O)[C@H](C)C(=O)[*:2])C(C)C; X6 = CC[C@H](C)[C@@H](N[*:1])[C@H](O)CC(=O)O[C@H](C(=O)[C@H](C)C(=O)[*:2])C(C)C; NMeY = CN[C@@H](Cc1ccc(O)cc1)C(=O)O; dNMeL = CN[C@H](CC(C)C)C(=O)O; Cbz = O=C(OCc1ccccc1)*

Key:
[1] = tested on: Balb/c splenocytes (resting lymphocytes); test: Lymphocyte viability (LcV) assay; format: cell-based, murine; settings: unstimulated Balb/c splenocytes, MTT
Description: Forty two (42) didemnin compounds (see Table 1) were evaluated for cytotoxicity to one of the lymphocyte populations in the MLR (i.e., Balb/c splenocytes). The purpose of the lymphocyte viability assay (LcV) is to measure metabolic activity in lymphocytes after they have been exposed to the compounds for the duration of an under conditions equivalent to the MLR. The inverse of the data yields cytotoxicity information about the compounds on murine lymphocytes. The rationale of using resting cells, in this case unstimulated lymphocytes, to measure cytotoxicity has a strategic importance. In the MLR the heterogenous cell populations are predominantly resting cells when the assay begins.
Test compounds were prepared in two sets as described above. Splenocytes were prepared as described previously from one murine strain (Balb/c), and a volume of 200 μL of the cell suspension was added to one set of test compounds and control wells.
Assay plates were incubated as in the MLR and then pulsed overnight 75 μL per well MTT-thiazolyl blue solution (150 μg). The plates were decanted and the resulting insoluble formazan crystals were dissolved in 200 μL of isopropyl alcohol. Absorbance at 570 nm was measured.
The LcV data were calculated as a percentage of basal metabolic activity, or percent viability, relative to BALB/c control, and an LC50 value was interpolated for each test compound.

[2] = tested on: murine splenocytes (Balb/c and C57B1/6); test: Two-way mixed lymphocyte reaction (MLR) assay; settings: Balb/c + C57B1/6 splenocytes, 96 h, [3H]thymidine; for IC50: read-out: two-way mixed lymphocyte reaction (MLR) suppression MLR, IC50;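 on all read-outs here: proliferation read as tritiated thymidine incorporation into newly made DNA after an overnight pulse, expressed as percent of control activity, IC50 interpolated per compound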
[3] = tested on: concanavalin A-induced lymphoblasts (Con A splenocytes); test: Lymphoblast viability (LbV) assay; settings: Con A-stimulated splenocytes (lymphoblasts), MTT
[4] = tested on: CB6F1 mice grafted with Balb/c splenocytes; test: Graft vs host reaction (GVHR) splenomegaly assay; format: in vivo; settings: 200 mg/Kg/day, QD 1-7, ip
Description: Three representative compounds didemnin M (38), O-pGlu-DB (37), and didemnin B (1)-showing high (37,38) or moderate (1) in vivo immunosuppressive activity were subsequently evaluated in a multidose assay (0.16,0.016, and 0.0016 mg/kg per injection; qd 1-7) for their in vivo immunosuppressive effects on the GVHR splenomegaly assay.
Three didemnins (didemnin B, didemnin M, and pGlu-didemnin B) were evaluated in a modified Simonsen splenomegaly assay. Briefly, an F1 hybrid host animal is grated with immunocompetent spleen cells from the parent strain. The index used to measure the success of the GVHR is splenomegaly (increased spleen weight due to cellular proliferation of grafted lymphocytes). An index>1.3 (graft index) is considered to be a successful graft rejection of the recipient animal. Immunosuppression is considered as a reduction of the graft index.
On day O, CB6F1 female mice, 4 weeks of age, were grated by intraperitoneal (ip) injection of 50×10^5 splenocytes from BALB/c female mice in high-glucose ([…]) Dulbecco's modified Eagles medium. A syngeneic control group (CB6F1 --CB6F1) was similarly prepared and served as the negative control. Grafted mice were divided into treatment groups containing six mice each. Groups were injected ip with test compound (dissolved in vehicle; 1% abs. EtOH in sterile phosphate-buffered saline) at one of three dose levels (0.16, 0.016, and 0.0016 mg/kg per injection) in a multidose assay, cyclophosphamide (200 mg/kg per injection) or vehicle on days 1-7 (qd 1-7). On day 8 all groups were sacrificed, spleens were excised, and a graft index was calculated for each group by the following formula: [formula]

Row | SMILES | cytoxicity to lymphocytes LcV, LC50 [1] [nM] | cytoxicity to lymphocytes LcV, LC50 ([1]; highest concentration 10 μg/mL) [µg/mL] | two-way mixed lymphocyte reaction (MLR) suppression MLR, IC50 [2] [µg/mL] | IC50 [2] [nM] | cytotoxicity to lymphocytes LbV, LC50 [3] [nM] | alive day 8 [4] [%] | body weight change day 5 [4] [g] | body weight day 5 (g ± SD) [4] [g] | index (spleen wt. treated/spleen wt. syngenetic injection) [4] | mean group spleen wt. normalized to day 8 body weight [4]
1 | CC[C@H](C)[C@H]1NC(=O)[C@@H](NC(=O)[C@@H](CC(C)C)NC)[C@@H](C)OC(=O)[C@H](Cc2ccc(OC)cc2)N(C)C(=O)[C@@H]2CCCN2C(=O)[C@H](CC(C)C)NC(=O)[C@@H](C)C(=O)[C@H](C(C)C)OC(=O)C[C@@H]1O [Compound 2, Didemnin A] (H-[dNMeL]T[X1]LP[NMeY](Me); ester 2-C) | > 11000 | > 10 | 0.00093 | 0.98 | 15 |  |  |  |  | 
2 | CC[C@H](C)[C@H]1NC(=O)[C@@H](NC(=O)[C@@H](CC(C)C)N(C)C(=O)OCc2ccccc2)[C@@H](C)OC(=O)[C@H](Cc2ccc(OC)cc2)N(C)C(=O)[C@@H]2CCCN2C(=O)[C@H](CC(C)C)NC(=O)[C@@H](C)C(=O)[C@H](C(C)C)OC(=O)C[C@@H]1O [Compound 3, Z-Didemnin A] (Cbz-[dNMeL]T[X1]LP[NMeY](Me); ester 2-C) | 7500 | 8.10 | 0.0011 | 1.02 | 1.9 |  |  |  |  | 
3 | CC[C@H](C)[C@H]1NC(=O)[C@@H](NC(=O)[C@@H](CC(C)C)N(C)C(=O)OCc2ccccc2)[C@@H](C)OC(=O)[C@H](Cc2ccc(OC)cc2)N(C)C(=O)[C@@H]2CCCN2C(=O)[C@H](CC(C)C)NC(=O)[C@@H](C)C(=O)[C@H](C(C)C)OC(=O)C[C@H]1O [Compound 4, Z-[(3R,4R,5S)Ist^2]Didemnin A] (Cbz-[dNMeL]T[X6]LP[NMeY](Me); ester 2-C) | 9000 | 9.70 | 0.019 | 18 | 220 |  |  |  |  | 
4 | CC[C@@H](C)[C@H]1NC(=O)[C@@H](NC(=O)[C@@H](CC(C)C)N(C)C(=O)OCc2ccccc2)[C@@H](C)OC(=O)[C@H](Cc2ccc(OC)cc2)N(C)C(=O)[C@@H]2CCCN2C(=O)[C@H](CC(C)C)NC(=O)[C@@H](C)C(=O)[C@H](C(C)C)OC(=O)C[C@@H]1O [Compound 5, Z-[(3S,4R,5R)-Ist^2]Didemnin A] (Cbz-[dNMeL]T[X5]LP[NMeY](Me); ester 2-C) | > 9300 | > 10 | 0.0003 | 0.28 | 12 |  |  |  |  | 
5 | CC[C@H](C)[C@@H]1NC(=O)[C@@H](NC(=O)[C@@H](CC(C)C)N(C)C(=O)OCc2ccccc2)[C@@H](C)OC(=O)[C@H](Cc2ccc(OC)cc2)N(C)C(=O)[C@@H]2CCCN2C(=O)[C@H](CC(C)C)NC(=O)[C@@H](C)C(=O)[C@H](C(C)C)OC(=O)C[C@@H]1O [Compound 6, Z-[(3S,4S,5S)-Ist^2]Didemnin A] (Cbz-[dNMeL]T[X3]LP[NMeY](Me); ester 2-C) | > 9300 | > 10 | 0.29 | 270 | 2600 |  |  |  |  | 
6 | CC[C@H](C)[C@H]1NC(=O)[C@@H](NC(=O)[C@@H](CC(C)C)NC)[C@@H](C)OC(=O)[C@H](Cc2ccc(OC)cc2)N(C)C(=O)[C@@H]2CCCN2C(=O)[C@H](CC(C)C)NC(=O)[C@@H](C)C(=O)[C@H](C(C)C)OC(=O)C[C@@H]1OC(C)=O [Compound 7, O-Acetyldidemnin A] | > 10000 | > 10 | 0.1 | 100 | 77 |  |  |  |  | 
7 | CC[C@H](C)[C@H]1NC(=O)[C@@H](NC(=O)[C@@H](CC(C)C)NC)[C@@H](C)OC(=O)[C@H](Cc2ccc(OC)cc2)N(C)C(=O)[C@@H]2CCCN2C(=O)[C@H](CC(C)C)NC(=O)[C@@H](C)[C@@H](O)[C@H](C(C)C)OC(=O)C[C@@H]1O [Compound 10, [(2S,3R,4S)-H2 Hip^3]Didemnin A] (H-[dNMeL]T[X4]LP[NMeY](Me); ester 2-C) | > 10600 | > 10 | 0.029 | 30.5 | 460 |  |  |  |  | 
8 | CC[C@H](C)[C@H]1NC(=O)[C@@H](NC(=O)[C@@H](CC(C)C)N(C)C(=O)[C@@H]2CCCN2C(=O)[C@H](C)O)[C@@H](C)OC(=O)[C@H](Cc2ccc(OC)cc2)N(C)C(=O)[C@@H]2CCCN2C(=O)[C@H](CC(C)C)NC(=O)[C@@H](C)C(=NO)[C@H](C(C)C)OC(=O)C[C@@H]1O [Compound 11, [Hip^3 oxime]Didemnin B] | > 8900 | > 10 | 0.00096 | 0.85 | 1.7 |  |  |  |  | 
9 | CC[C@H](C)[C@H]1NC(=O)[C@@H](NC(=O)[C@@H](CC(C)C)NC)[C@@H](C)OC(=O)[C@H](Cc2ccc(OC)cc2)N(C)C(=O)[C@@H]2CCCN2C(=O)[C@H](CC(C)C)NC(=O)[C@@H](C)C(=O)[C@@H](C(C)C)OC(=O)C[C@@H]1O [Compound 12, Epididemnin A1] (H-[dNMeL]T[X2]LP[NMeY](Me); ester 2-C) | > 10600 | > 10 | 0.081 | 86 | 51 |  |  |  |  | 
10 | CC[C@H](C)[C@H]1NC(=O)[C@@H](NC(=O)[C@@H](CC(C)C)N(C)C(=O)[C@@H]2CCCN2C(=O)[C@H](C)O)[C@@H](C)OC(=O)[C@H](Cc2ccc(O)cc2)NC(=O)[C@@H]2CCCN2C(=O)[C@H](CC(C)C)NC(=O)[C@@H](C)C(=O)[C@H](C(C)C)OC(=O)C[C@@H]1O [Compound 13, Didemnin N] | > 9200 | > 10 | 0.037 | 34.2 | 210 |  |  |  |  | 
11 | CC[C@H](C)[C@H]1NC(=O)[C@@H](NC(=O)[C@@H](CC(C)C)N(C)C(=O)[C@@H]2CCCN2C(=O)[C@H](C)O)[C@@H](C)OC(=O)[C@H](Cc2ccc(OC)c(I)c2)N(C)C(=O)[C@@H]2CCCN2C(=O)[C@H](CC(C)C)NC(=O)[C@@H](C)C(=O)[C@H](C(C)C)OC(=O)C[C@@H]1O [Compound 14, Iododidemnin B] | > 8100 | > 10 | 0.00081 | 0.66 | 0.82 |  |  |  |  | 
12 | CC[C@H](C)[C@H]1NC(=O)[C@@H](NC(=O)[C@@H](CC(C)C)N(C)C(=O)[C@@H]2CCCN2C(=O)[C@H](C)O)[C@@H](C)OC(=O)[C@H](CC2CCC(OC)CC2)N(C)C(=O)[C@@H]2CCCN2C(=O)[C@H](CC(C)C)NC(=O)[C@@H](C)C(=O)[C@H](C(C)C)OC(=O)C[C@@H]1O (stereo partly drawn) [Compound 15, [H6 Me2 Tyr6]Didemnin B] |  |  | 0.00081 | 0.72 | 1.6 |  |  |  |  | 
13 | O=P1(N(CCCl)CCCl)NCCCO1 (stereo not drawn) [Cyclophosphamide, reference compound] |  |  |  |  |  | 100 | -2.5 | 13.8 ± 0.4 | 0.14 | 0.4
